# Test results from patent publication US20130252945A1, “AMORPHOUS BIOINORGANIC IONIC LIQUID COMPOSITIONS COMPRISING PHARMACEUTICALS” (priority 2012, published 2013).
# Values joined by “and” are separate entries in the source; they are usually repeats but may differ in a detail not shown here. Identical values can stand only once. Counter-ions that a name gives are not always drawn.
# Experiments:
# [1] = Decomposition temperature by TGA; assay type: physicochemical; conditions: for Tdec (decomposition temperature): TGA under N2, 20° C. per minute
# Description: (§1) Melting points of all purchased materials were determined in a capillary tube using a MeI-Temp apparatus (Barnstead/Thermo Scientific). NMR data sets were collected on a 300 MHz Bruker instrument using sample concentrations of 50 mM. Infrared spectra were measured using an Avatar 360 FT-IR ESP (ThermoElectron-Nicolet, Waltham, Mass.) equipped with a Smart DuraSamplIR horizontal attenuated total reflectance (HATR) accessory. Raman spectra were measured using a Thermo-Nicolet 470 FTIR with Nd:YAG laser excitation and HgCdTe detector. Viscosity was measured on 1 mL samples with a Viscolab 3000 viscometer (Cambridge Viscosity, Medford, Mass.). Samples were heated to 90° C., except when otherwise specified, and viscosity was recorded in 2 degree increments between 50 and 90° C. with 8 min equilibration at each temperature. Thermal characterization was carried out using a Q100 DSC and a Q500 TGA (both from TA Instruments, New Castle, Del.). DSC was performed using a 5-10 mg sample in a 40 μL aluminum crucible sealed in the glovebox. A temperature range from −60 to 150° C. was scanned twice, at ramp rates of 5° C./min and 10° C./min. TGA was performed under N2 atmosphere over a temperature range from 25-800° C. with a ramp rate of 20° C. per minute and a sample size of 10 mg.
# [2] = Storage under Ar, observation for crystalline domains over 6 months; assay type: physicochemical; conditions: stored under Ar, observed over 6 months
# [3] = test system: Pseudomonas aeruginosa biofilms (clinical isolate from sputum); experiment: Challenge of established biofilms (72 h) with test compound, CFU count; assay type: cell-based; conditions: 6 h at 37° C.
# [4] = Solubility in solvents (soluble / insoluble); conditions: organic solvent or mixture
# [5] = test system: E. coli culture; experiment: Biofilm growth on IL-coated culture plates; assay type: cell-based; conditions: 100 μL IL per well, counted after 72 h, limit of detection
# Description: (§2) A second example of clear, colorless antimicrobial films formed by compositions described herein was shown with an assay that involved coating culture plates with IL and observing the biofilm growth on the coated surface. […] Aliquots of 100 μL of either a Staphylococcus aureus culture, an E. coli culture, or a Pseudomonas aeruginosa culture were added to each coated well, the plate was fed with fresh media every 24 h, and cells were counted after 72 h, as described above. The number of cells in the treated wells was below the limit of detection of the assay of 1000 cfu/mL, as compared with normal cell counts for the LB control wells, indicating high antimicrobial efficacy of the IL coating. Because bacteria colonize a surface prior to barnacles and other organisms, proof of antibacterial effects is key to showing anti-biofouling potential in aquatic environments.
# [6] = test system: Pseudomonas aeruginosa culture; experiment: Biofilm growth on IL-coated culture plates; assay type: cell-based; conditions: 100 μL IL per well, counted after 72 h, limit of detection
# Description: as §2
# [7] = test system: Staphylococcus aureus culture; experiment: Biofilm growth on IL-coated culture plates; assay type: cell-based; conditions: 100 μL IL per well, counted after 72 h, limit of detection
# Description: as §2
# [8] = assay type: physicochemical; conditions: 3 h incubation at a constant 120° C.
# [9] = Solubility at 1 mM in unbuffered water by eye and UV-Vis after filtration; assay type: physicochemical; conditions: unbuffered water (pH 6.5), by eye
# Description: Solubility of phenoxybenzamine hydrochloride and phenoxybenzamine-HCl—(ZnCl2)2 at 1 mM in unbuffered water (pH 6.5) was evaluated by eye and by UV-Vis spectroscopy after filtration through a 0.45 μm syringe filter.
# [10] = Shelf life by model-free isoconversional kinetic analysis of TGA data; assay type: physicochemical
# Description: Zinc(II) chloride (273 mg, 2 mmol) was added to a scintillation vial that had been heated, then cooled under vacuum and charged with dry argon. Phenoxybenzamine hydrochloride (340.3 mg, 1 mmol) was added to the vial with a stir bar and the mixture was degassed with stirring at 60° C. The vial was filled with argon, sealed with a cap, and stirred for 24 h at 80° C. to produce a clear, colorless glass. […] NMR spectra for ^1H and ^13C were obtained in d6-acetone. […] Spectra of phenoxybenzamine-HCl were performed with 0, 0.25, 0.5, 1.0, 1.5, 2.0, and 5.0 molar equivalents of ZnCl2 to observe this effect. Thermal decomposition after a 3 h incubation of the IL at a constant 120° C. was 2.7% of the starting mass. In contrast, the phenoxybenzamine hydrochloride starting material loses 38% of its mass after a similar incubation. The IL was soluble (>1 mM) in acetone, water and phosphate buffered to pH 6.0. The IL was insoluble (<1 mM) in toluene and tetrahydrofuran. […] The manufacturer's shelf life for 10 mg phenoxybenzamine hydrochloride tablets is 2 years, or 730 days, and the calculated value for solid phenoxybenzamine hydrochloride (5% decay at 20° C.) was 750 days (2.05 years), indicating good agreement of the calculation with actual shelf life. […]
# [11] = Viscosity (Viscolab 3000 viscometer); assay type: physicochemical; conditions: at 90° C.
# Description: as §1
compound,measurement,setting,value
CNC(=C[N+](=O)[O-])NCCSCc1ccc(CN(C)C)o1.Cl.[Cl][Zn][Cl].[Cl][Zn][Cl],Tdec (decomposition temperature),[1],230.9 °C
same,appearance of crystalline domains on storage,[2],no crystalline domains appeared
"CCCC[N+]1(C)CCCC1.O=S(=O)([N-]S(=O)(=O)C(F)(F)F)C(F)(F)F [BMP-NTf2, 1-butyl-1-methypyrrolidinium bistriflimide]",cell count of biofilm after challenge,[3]; neat,2×10^5
CN1[C@@H]2CC[C@H]1CC(OC(=O)C(O)c1ccccc1)C2 (stereo partly drawn) [Homatropine-HCl—(ZnCl2)2],ΔTdec (increase in decomposition temperature relative to HCl starting material),[1]; TGA,+7.8 °C
same,appearance of crystalline domains on storage,[2],no crystalline domains appeared
same,solubility,[4]; dimethylsulfoxide,> 1000 µM
same,solubility,[4]; toluene,< 1000 µM
CN(C)CCCN1c2ccccc2CCc2ccccc21.Cl.[Cl][Zn][Cl].[Cl][Zn][Cl] [Imipramine-HCl—(ZnCl2)2],appearance of crystalline domains on storage,[2],no crystalline domains appeared
[Cl-].[Na+] [NaCl],cell count of biofilm after challenge,"[3]; 5 M in LB, control for ionic strength",1×10^6 cells
"[Cl-].[Cl-].[Zn+2] [ZnCl2, Zinc(II) chloride]",cell count of biofilm after challenge,[3]; 1.8 M in LB,4×10^5
"CC(C)(C)CC(C)(C)c1ccc(OCCOCC[N+](C)(C)Cc2ccccc2)cc1 [benzethonium chloride, Benzethonium chloride]",viable dispersed cell count (conservative estimate),"[3]; 78 mM in LB, formed precipitate",~5×10^4 cfu/mL
"CC(C)(C)CC(C)(C)c1ccc(OCCOCC[N+](C)(C)Cc2ccccc2)cc1 [benzethonium-Cl—(ZnCl2)2, Benzethonium-Cl—(ZnCl2)2]",number of cells in treated (IL-coated) wells,[5],< 1000 cfu/mL
same,number of cells in treated (IL-coated) wells,[6],< 1000 cfu/mL
same,number of cells in treated (IL-coated) wells,[7],< 1000 cfu/mL
"CC(COc1ccccc1)N(CCCl)Cc1ccccc1 (stereo not drawn) [phenoxybenzamine hydrochloride, Phenoxybenzamine hydrochloride, reference compound]",thermal decomposition (loss of starting mass),[8],38%
"CC(COc1ccccc1)N(CCCl)Cc1ccccc1.Cl.[Cl][Zn][Cl].[Cl][Zn][Cl] (stereo not drawn) [phenoxybenzamine-HCl—(ZnCl2)2, Phenoxybenzamine-HCl—(ZnCl2)2]",solubility in unbuffered water (appeared to completely dissolve),[9],≥ 1 mM and ≥ 0.34 mg/mL
same,thermal decomposition (loss of starting mass),[8],2.7%
same,improvement of shelf life over solid phenoxybenzamine hydrochloride,"[10]; at 20° C., 5% decomposition",7.7 fold
same,improvement of shelf life over standard formulation in syrup and propylene glycol,[10]; compared with 4-day refrigerator shelf life,1500 fold
same,appearance of crystalline domains on storage,[2],no crystalline domains appeared
Ethambutol-(HCl)2—(ZnCl2)2,appearance of crystalline domains on storage,[2],no crystalline domains appeared
same,Viscosity,[11],17350 cP
Procainamide-HCl—(ZnCl2)2,Tdec (decomposition temperature),[1],291.0 °C
same,appearance of crystalline domains on storage,[2],no crystalline domains appeared
